According to patent publication EP2764866A1, “Inhibitors of nedd8-activating enzyme” (IP Gesellschaft für Management mbH, priority 2013, dated 2014):
Converted amounts (≈) assume the structure as drawn. Where a name gives a salt, the structure may show the parent alone. Read-outs that look alike come from different tables or passages of the source.

How the values were obtained:
[1] = from COC(=O)[C@@H]1C[C@@H](Oc2nc3cc(OC)ccc3nc2C#CCCC[C@@H]2C[C@H]2OC(=O)N[C@H](C(=O)O)C(C)(C)C)CN1; amide bond; HATU; DMAc; 86.2 mM; 0.0 °C; 12.0 h
human c-mpl-Ba/F3 cell = assay: Mouse oral administration test (plasma activity in the c-mpl-Ba/F3 proliferation system); assay type: in vivo, male ICR mice; conditions: for activity at 3 mg/kg: Mus musculus, po, 2 h; for Cell proliferation activity (%) 0.3%: 0.3% blood plasma concentration; for oral absorption: conclusion from the mouse oral administration test
Human c-mpl-Ba/F3 cells = assay: Cell proliferation test for human c-mpl-Ba/F3 cells; assay type: cell-based
Experimental: Test Example I Cell Proliferation Test for Human c-mpl-Ba/F3 Cells: Human c-mpl-Ba/F3 cells at a concentration of 2 x 10^5 cells/mL were cultured at 37 °C on a 96 well microplate using RPMI 1640 culture medium (100 microliter/well) containing 10% fetal calf serum to which various concentrations of the test compound was added. After 24 hours from the start of culturing, 10 microliter/well of WST-1/1-methoxy PMS (cell measuring kit, Dojin) was added. Immediately after the addition and two hours later, the A450/A650 absorbance was measured using a microplate reader (Model 3350, Bio-Rad), and the increase in absorbance after 2 hours was interpreted to represent the proliferation activity of each test compound. […] Furthermore, the maximum cell proliferation activity of compound X maleic acid salt C type crystals ({drug1b}) was 102%, based on the maximum cell proliferation activity of rhTPO being 100%. […] Therefore, compound X maleic acid salt C type crystals ({drug1b}) are useful for treating and preventing various types of thrombocytopenia by having a thrombocytosis effect. […]

[2] = tested on: Ba/F3 cells where c-mpl was not introduced; assay: Cell proliferation test in Ba/F3 cells without c-mpl; assay type: cell-based
[3] = Pharmacokinetics of Compound [1] in Phase I and II studies; conditions: continuous daily dosing regimen, doses of 400 mg/day and above
HCC78 cells = assay: cells; conditions: Homo sapiens, HCC78, read-out: IC50 for inhibition of HCC78 cell viability
[4] = Hygroscopicity (water absorbed); assay type: physicochemical
[5] = pH 1, compared to the free acid form
[6] = dosed at 10mg/kg, compared to the free acid form
pKa = assay type: physicochemical
Excerpt: Suitable alkalizing agents include but are not limited to organic and inorganic basic compounds of a wide range of aqueous solubilities and molecular weights and mixtures thereof. Examples of inorganic basic salts include ammonium hydroxide, alkali metal salts, alkaline earth metal salts such as magnesium oxide, magnesium hydroxide, calcium hydroxide, sodium hydroxide, potassium hydroxide, aluminium hydroxide, potassium carbonate, sodium bicarbonate and the like and mixtures thereof. In particular, an alkalizing agent is selected from magnesium oxide, calcium carbonate, calcium phosphate and combinations thereof. More particularly, the alkalizing agent is magnesium oxide. […] Examples of precipitation inhibitors include but are not limited to polyvinyl pyrrolidone, for example those products known as PVP K30, PVP K29/32 and PVPP XL, and hydroxy propyl methyl cellulose (HPMC), for example those products known as […]® low viscous hypromellose-based water-soluble film coating agent. […] As used herein, the term "oral dosage form" refers to physically discrete units suitable as unitary dosages for humans and other mammals, each unit containing a predetermined quantity of a therapeutic agent in association with one or more pharmaceutically acceptable carrier. […]

physchem = conditions: pH 1.2, simulated gastric fluid
[7] = 3 mg/kg orally, blood 2 hours after administration, maximum activity of each test compound = 100%

## COC(=O)[C@@H]1C[C@@H]2CN1C(=O)[C@H](C(C)(C)C)NC(=O)O[C@@H]1C[C@H]1CCCC#Cc1nc3ccc(OC)cc3nc1O2
[1]
  ring closure, yield of all isomers: 88.6%

## O=C(Nc1nc(-c2cc(Cl)cs2)c(N2CCN(C3CCCCC3)CC2)s1)c1cnc(N2CCC(C(=O)O)CC2)c(Cl)c1 [1-(3-chloro-5-{[4-(4-chlorothiophen-2-yl)-5-(4-cyclohexylpiperazin-1-yl)thiazol-2-yl]carbamoyl}pyridin-2-yl) piperidine-4-carboxylic acid maleic acid salt, reference compound]
Human c-mpl-Ba/F3 cell; 3 mg/kg orally, blood 2 hours after administration, 10% blood plasma concentration, maximum activity of each test compound = 100%, read-out: Cell proliferation activity (%) 10%
  activity at 3 mg/kg: > 80%

## O=C(Nc1nc(-c2cc(Cl)cs2)c(N2CCN(C3CCCCC3)CC2)s1)c1cnc(N2CCC(C(=O)O)CC2)c(Cl)c1 [1-(3-chloro-5-{[4-(4-chlorothiophen-2-yl)-5-(4-cyclohexylpiperazin-1-yl)thiazol-2-yl]carbamoyl}pyridin-2-yl) piperidine-4-carboxylic acid maleic acid salt]
Human c-mpl-Ba/F3 cell; 3 mg/kg orally, blood 2 hours after administration, 0.1% blood plasma concentration, maximum activity of each test compound = 100%, read-out: Cell proliferation activity (%) 0.1%
  activity at 3 mg/kg: 30%
Human c-mpl-Ba/F3 cells; Homo sapiens, 24 hours culture, WST-1/1-methoxy PMS readout, read-out: cell proliferation effect, EC50
  EC50: 2 nM

## O=C(Nc1nc(-c2cc(Cl)cs2)c(N2CCN(C3CCCCC3)CC2)s1)c1cnc(N2CCC(C(=O)O)CC2)c(Cl)c1 [Compound X hydrochloride, reference compound]
Human c-mpl-Ba/F3 cell; [7]
  Cell proliferation activity (%) 0.3%: < 10%
Human c-mpl-Ba/F3 cell; 3 mg/kg orally, blood 2 hours after administration, 10% blood plasma concentration, maximum activity of each test compound = 100%
  Cell proliferation activity (%) 10%: 34%

## O=C(Nc1nc(-c2cc(Cl)cs2)c(N2CCN(C3CCCCC3)CC2)s1)c1cnc(N2CCC(C(=O)O)CC2)c(Cl)c1.O=C(O)/C=C\C(=O)O [Compound X maleic acid salt A type crystal] [1-(3-chloro-5-{[4-(4-chlorothiophen-2-yl)-5-(4-cyclohexylpiperazin-1-yl)thiazol-2-yl]carbamoyl}pyridin-2-yl) piperidine-4-carboxylic acid maleic acid salt, reference compound]
Human c-mpl-Ba/F3 cell; [7]
  Cell proliferation activity (%) 0.3%: 55%
Human c-mpl-Ba/F3 cell; listed as compound X maleic acid salt A type crystals
  oral absorption: excellent oral absorption

## O=C(Nc1nc(-c2cc(Cl)cs2)c(N2CCN(C3CCCCC3)CC2)s1)c1cnc(N2CCC(C(=O)O)CC2)c(Cl)c1.O=C(O)/C=C\C(=O)O [Compound X maleic acid salt B type crystal] [1-(3-chloro-5-{[4-(4-chlorothiophen-2-yl)-5-(4-cyclohexylpiperazin-1-yl)thiazol-2-yl]carbamoyl}pyridin-2-yl) piperidine-4-carboxylic acid maleic acid salt]
Human c-mpl-Ba/F3 cell; [7]
  Cell proliferation activity (%) 0.3%: < 10%
Human c-mpl-Ba/F3 cell; listed as compound X maleic acid B type crystals
  oral absorption: inferior oral absorption

## O=C(Nc1nc(-c2cc(Cl)cs2)c(N2CCN(C3CCCCC3)CC2)s1)c1cnc(N2CCC(C(=O)O)CC2)c(Cl)c1.O=C(O)/C=C\C(=O)O [Compound X maleic acid salt C type crystal] [1-(3-chloro-5-{[4-(4-chlorothiophen-2-yl)-5-(4-cyclohexylpiperazin-1-yl)thiazol-2-yl]carbamoyl}pyridin-2-yl) piperidine-4-carboxylic acid maleic acid salt]
[2]
  cell proliferation effect: not observed
Human c-mpl-Ba/F3 cell; [7]
  Cell proliferation activity (%) 0.3%: > 80%
Human c-mpl-Ba/F3 cell
  oral absorption: excellent oral absorption
Human c-mpl-Ba/F3 cells; based on the maximum cell proliferation activity of rhTPO being 100%
  maximum cell proliferation activity: 102%

## CN1CCN(c2ccc3nc(-c4c(N)c5c(F)cccc5[nH]c4=O)[nH]c3c2)CC1 [Compound [1]]
[3]
  exposure: prolonged over-proportional exposure

## C[C@@H](Oc1cc(-c2cnn(C3CCNCC3)c2)cnc1N)c1c(Cl)ccc(F)c1Cl [Crizotinib, 3-[(R)-1-(2,6-dichloro-3-fluoro-phenyl)-ethoxy]-5-(1-piperidin-4-yl-1-H -pyrazol-4-yl)-pyridin-2-ylamine]
HCC78 cells
  IC50: ~59 nM

## CCC(CC)Nc1c(Nc2ccc(Cl)c(S(=O)(=O)N(C)OC)c2O)c(=O)c1=O [choline salt, 6-chloro-3-[2-(1-ethyl-propylamino)-3,4-dioxo-cyclobut-1-enylamino]-2-hydroxy-N-methoxy-N-methyl-benzenesulfonamide choline]
[4]; after 1 day at 80% humidity
  amount of water absorbed: 0.7 % by weight
[4]; after 1 day at 92% humidity
  amount of water absorbed: 0.6 % by weight
[5]
  dissolution rate: much improved
[6]
  oral exposure: much improved

## CCC(CC)Nc1c(Nc2ccc(Cl)c(S(=O)(=O)N(C)OC)c2O)c(=O)c1=O [free acid, 6-chloro-3-[2-(1-ethyl-propylamino)-3,4-dioxo-cyclobut-1-enylamino]-2-hydroxy-N-methoxy-N-methyl-benzenesulfonamide, reference compound]
[4]; after 1 day at 80% humidity
  amount of water absorbed: 2.4 % by weight
[4]; after 1 day at 92% humidity
  amount of water absorbed: 2.8 % by weight
pKa
  pKa: 5.4
physchem
  solubility: 1 µg/mL (≈ 2.32 µM)
